From patent publication US5624923A, “Tricyclic diazepine vasopressin antagonists and oxytocin antagonists” (priority 1995, dated 1997)

Assays:
Rat Hepatic V1 Receptors = target: T1, Rat Hepatic V1 Receptors (Rattus norvegicus, UniProt P30560); test: Binding Assay to Rat Hepatic V1 Receptors; settings: for IC50: rat liver membranes, read-out: V1 IC50
T1 construct: Rat liver plasma membranes expressing the vasopressin V1 receptor subtypes; from tissue; host or cells: rat liver plasma membranes

[1] = target: T2, Rat Kidney Medullary V2 Receptors (Rattus norvegicus, UniProt Q00788); test: Binding Assay to Rat Kidney Medullary V2 Receptors; settings: for IC50: rat kidney medulla membranes, read-out: V2 IC50
T2 construct: Medullary tissues from rat kidneys are dissected out; from tissue; host or cells: rat kidney medulla membranes
T2 sequence (Q00788 whole entry): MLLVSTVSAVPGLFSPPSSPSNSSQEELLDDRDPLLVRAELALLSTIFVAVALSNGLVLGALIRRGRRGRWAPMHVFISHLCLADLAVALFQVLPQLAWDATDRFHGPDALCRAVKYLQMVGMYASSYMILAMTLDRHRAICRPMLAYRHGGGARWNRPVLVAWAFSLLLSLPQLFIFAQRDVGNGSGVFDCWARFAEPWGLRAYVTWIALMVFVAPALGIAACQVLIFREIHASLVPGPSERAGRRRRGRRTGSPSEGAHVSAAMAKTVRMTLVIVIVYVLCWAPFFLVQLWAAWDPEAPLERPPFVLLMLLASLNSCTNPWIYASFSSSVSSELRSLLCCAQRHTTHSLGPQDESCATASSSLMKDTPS
In short: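 IC50 derived from competition curves; bound tritium counted by liquid scintillation after filtration. Rat medullary kidney membranes (Tris-HCl pH 7.4, BSA, PMSF) were incubated 120 min to equilibrium with radioligand and test compound (added in 50% DMSO). Nonspecific binding: 1.0 μM unlabeled ligand.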

Vasopressin V2 = Vasopressin V2 Antagonist Activity in Conscious Hydrated Rats; format: in vivo, rat; settings: AVP 0.4 μg/kg i.p.
In short: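 Four-hour urine output, osmolality and electrolytes (Na+, K+, Cl−) recorded in water-loaded rats (30 mL/kg deionized water orally) given AVP i.p. at 0.4 μg/kg. Test compounds were given orally at 0.1–100 mg/kg 1 h before AVP; 2–4 rats per compound.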

Vasopressin V1 = Vasopressin V1 Antagonist Activity in Conscious Rats (vasopressin vasopressor response); format: in vivo, rat; parameters: Average Change: unit not given here; settings: for % Inhibition / Average Change: SHR
In short: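 Conscious rats are restrained supine, and under local 2% procaine a PE 10/20 cannula is passed through the ventral caudal tail artery into the lower abdominal aorta. The caudal vein is cannulated for intravenous dosing. Blood pressure is recorded with a Statham P23Db transducer, and vasopressin injections are repeated after compound dosing. Percent antagonism is calculated against the pre-drug vasopressor response taken as 100%.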

[2] = 10 mg/kg i.v., VAS 0.01 i.u./kg, 30 min
[3] = 10 mg/kg i.v., VAS 0.01 i.u./kg, 60 min
[4] = 10 mg/kg i.v., VAS 0.01 i.u./kg, 90 min
[5] = 10 mg/kg i.v., VAS 0.01 i.u./kg, 120 min
[6] = 10 mg/kg i.v., VAS 0.01 i.u./kg, 180 min
[7] = 10 mg/kg i.v., VAS 0.01 i.u./kg, 240 min
[8] = 10 mg/kg i.v., VAS 0.01 i.u./kg, 300 min
[9] = 10 mg/kg i.v., VAS 0.02 i.u./kg, 30 min
[10] = 10 mg/kg i.v., VAS 0.02 i.u./kg, 60 min
[11] = 10 mg/kg i.v., VAS 0.02 i.u./kg, 90 min
[12] = 10 mg/kg i.v., VAS 0.02 i.u./kg, 120 min
[13] = 10 mg/kg i.v., VAS 0.02 i.u./kg, 180 min
[14] = 10 mg/kg i.v., VAS 0.02 i.u./kg, 240 min
[15] = 10 mg/kg i.v., VAS 0.02 i.u./kg, 300 min
[16] = 20 mg/kg i.v., VAS 0.01 i.u./kg, 60 min
[17] = 20 mg/kg i.v., VAS 0.01 i.u./kg, 90 min
[18] = 20 mg/kg i.v., VAS 0.01 i.u./kg, 120 min
[19] = 20 mg/kg i.v., VAS 0.01 i.u./kg, 180 min
[20] = 20 mg/kg i.v., VAS 0.01 i.u./kg, 240 min
[21] = 20 mg/kg i.v., VAS 0.01 i.u./kg, 300 min
[22] = 20 mg/kg i.v., VAS 0.02 i.u./kg, 60 min
[23] = 20 mg/kg i.v., VAS 0.02 i.u./kg, 90 min
[24] = 20 mg/kg i.v., VAS 0.02 i.u./kg, 120 min
[25] = 20 mg/kg i.v., VAS 0.02 i.u./kg, 180 min
[26] = 20 mg/kg i.v., VAS 0.02 i.u./kg, 240 min
[27] = 20 mg/kg i.v., VAS 0.02 i.u./kg, 300 min

T1 sequence (P30560 whole entry): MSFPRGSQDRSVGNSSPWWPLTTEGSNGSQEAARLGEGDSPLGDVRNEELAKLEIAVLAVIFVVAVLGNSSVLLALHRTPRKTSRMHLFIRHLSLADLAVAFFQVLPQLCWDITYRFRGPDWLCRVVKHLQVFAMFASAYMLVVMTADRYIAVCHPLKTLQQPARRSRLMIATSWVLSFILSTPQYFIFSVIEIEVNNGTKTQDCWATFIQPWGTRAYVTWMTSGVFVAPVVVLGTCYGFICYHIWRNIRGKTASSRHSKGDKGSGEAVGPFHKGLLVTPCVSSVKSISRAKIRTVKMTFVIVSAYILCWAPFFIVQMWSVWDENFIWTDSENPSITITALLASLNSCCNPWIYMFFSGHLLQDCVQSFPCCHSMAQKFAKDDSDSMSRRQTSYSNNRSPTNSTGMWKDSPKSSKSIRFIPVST

## Cc1ccccc1C(=O)Nc1ccc(C(=O)N2Cc3cccn3-c3ccccc32)cc1 [Example 14, 2-Methyl-N-[4-(pyrrolo[1,2-a]quinoxalin-5 (4H)-ylcarbonyl)phenyl]benzamide]
Rat Hepatic V1 Receptors
  IC50: 170 nM
[1]
  IC50: 66 nM
Vasopressin V2; 3 mg/kg orally
  Osmolality: 1000 mOsm/kg
  Urine Volume: 4.5 ml/4 hrs
Vasopressin V2; 10 mg/kg orally
  Osmolality: 836 mOsm/kg
  Urine Volume: 5.2 ml/4 hrs
Vasopressin V1; [2]
  % Inhibition: 25%
  Average Change: 26
Vasopressin V1; [3]
  % Inhibition: 23%
  Average Change: 26.5
Vasopressin V1; [4]
  % Inhibition: 39%
  Average Change: 21
Vasopressin V1; [5]
  % Inhibition: 23%
  Average Change: 26.5
Vasopressin V1; [6]
  % Inhibition: 6%
  Average Change: 32.5
Vasopressin V1; [7]
  % Inhibition: 17%
  Average Change: 28.5
Vasopressin V1; [8]
  % Inhibition: 26%
  Average Change: 25.5
Vasopressin V1; [9]
  % Inhibition: 20%
  Average Change: 38
Vasopressin V1; [10]
  % Inhibition: 34%
  Average Change: 31.5
Vasopressin V1; [11]
  % Inhibition: 16%
  Average Change: 40
Vasopressin V1; [12]
  % Inhibition: 17%
  Average Change: 39.5
Vasopressin V1; [13]
  % Inhibition: -9%
  Average Change: 52
Vasopressin V1; [14]
  % Inhibition: 25%
  Average Change: 35.5
Vasopressin V1; [15]
  % Inhibition: 16%
  Average Change: 40

## O=C(Nc1ccc(C(=O)N2Cc3cccn3Cc3ccccc32)cc1)c1sc2ccccc2c1Cl [Example 82, N-[4-(5H-Pyrrolo[2,1-c][1,4]benzodiazepin-10(11H)-ylcarbonyl)phenyl]-3-chlorobenzo[b]thiophene-2-carboxamide]
Rat Hepatic V1 Receptors; 2 h, 10 μM, rat
  inhibition at 10 µM: 23%
[1]; 10 μM, rat
  inhibition at 10 µM: 71%
Vasopressin V2; 20 mg/kg orally
  Osmolality: 1300 mOsm/kg
  Urine Volume: 4.3 ml/4 hrs
Vasopressin V1; [2]
  % Inhibition: 24%
  Average Change: 36
Vasopressin V1; [9]
  % Inhibition: -5%
  Average Change: 54
Vasopressin V1; [16]
  % Inhibition: 67%
  Average Change: 15.5
Vasopressin V1; [17]
  % Inhibition: 51%
  Average Change: 23.5
Vasopressin V1; [18]
  % Inhibition: 65%
  Average Change: 16.5
Vasopressin V1; [19]
  % Inhibition: 61%
  Average Change: 18.5
Vasopressin V1; [20]
  % Inhibition: 39%
  Average Change: 29
Vasopressin V1; [21]
  % Inhibition: 33%
  Average Change: 32
Vasopressin V1; [22]
  % Inhibition: 28%
  Average Change: 37
Vasopressin V1; [23]
  % Inhibition: 53%
  Average Change: 24
Vasopressin V1; [24]
  % Inhibition: 25%
  Average Change: 38.5
Vasopressin V1; [25]
  % Inhibition: 16%
  Average Change: 43.5
Vasopressin V1; [26]
  % Inhibition: 18%
  Average Change: 42
Vasopressin V1; [27]
  % Inhibition: -3%
  Average Change: 53

## Cc1cc(C(=O)N2Cc3cccn3Cc3ccccc32)ccc1NC(=O)c1ccc(Cl)cc1Cl [Example 99, N-[4-(5H-pyrrolo[2,1-c][1,4]-benzodiazepin-10(11H)-yl-carbonyl)-2-methylphenyl]-2,4-dichlorobenzamide]
Rat Hepatic V1 Receptors
  IC50: 27 nM
[1]
  IC50: 10 nM
Vasopressin V2; 30 mg/kg orally
  Osmolality: 334 mOsm/kg
  Urine Volume: 15.2 ml/4 hrs
Vasopressin V1; 10 mg/kg i.v.
  Max. % Inhibition: 76%
  Time (of max. % inhibition): 120 min
Vasopressin V1; [2]
  % Inhibition: 74%
  Average Change: 9.5
Vasopressin V1; [3]
  % Inhibition: 29%
  Average Change: 25.5
Vasopressin V1; [4]
  % Inhibition: 47%
  Average Change: 19
Vasopressin V1; [5]
  % Inhibition: 76%
  Average Change: 8.5
Vasopressin V1; [6]
  % Inhibition: 68%
  Average Change: 11.5
Vasopressin V1; [7]
  % Inhibition: 50%
  Average Change: 18
Vasopressin V1; [8]
  % Inhibition: 44%
  Average Change: 20
Vasopressin V1; [9]
  % Inhibition: 64%
  Average Change: 13
Vasopressin V1; [10]
  % Inhibition: 72%
  Average Change: 10
Vasopressin V1; [11]
  % Inhibition: 26%
  Average Change: 26.5
Vasopressin V1; [12]
  % Inhibition: 53%
  Average Change: 17
Vasopressin V1; [13]
  % Inhibition: 44%
  Average Change: 20
Vasopressin V1; [14]
  % Inhibition: 40%
  Average Change: 21.5
Vasopressin V1; [15]
  % Inhibition: 38%
  Average Change: 22.5

## O=C(Nc1ccc(C(=O)N2Cc3cccn3Cc3ccccc32)cc1)C1CCCCC1 [Example 358, N-[4-(5H-Pyrrolo[2,1-c][1,4]benzodiazepin-10(11)ylcarbonyl)phenyl]-cyclohexanecarboxamide]
Rat Hepatic V1 Receptors
  IC50: 11 nM
[1]
  IC50: 16 nM
Vasopressin V2; 30 mg/kg orally
  Osmolality: 875 mOsm/kg
  Urine Volume: 5.5 ml/4 hrs
Vasopressin V1; [2]
  % Inhibition: 67%
  Average Change: 12
Vasopressin V1; [3]
  % Inhibition: 64%
  Average Change: 13
Vasopressin V1; [4]
  % Inhibition: 52%
  Average Change: 17.5
Vasopressin V1; [5]
  % Inhibition: 78%
  Average Change: 8
Vasopressin V1; [6]
  % Inhibition: 52%
  Average Change: 17.5
Vasopressin V1; [7]
  % Inhibition: 67%
  Average Change: 12
Vasopressin V1; [8]
  % Inhibition: 48%
  Average Change: 19
Vasopressin V1; [9]
  % Inhibition: 39%
  Average Change: 24
Vasopressin V1; [10]
  % Inhibition: 75%
  Average Change: 10
Vasopressin V1; [11]
  % Inhibition: 72%
  Average Change: 11
Vasopressin V1; [12]
  % Inhibition: 65%
  Average Change: 14
Vasopressin V1; [13]
  % Inhibition: 63%
  Average Change: 14.5
Vasopressin V1; [14]
  % Inhibition: 61%
  Average Change: 15.5
Vasopressin V1; [15]
  % Inhibition: 59%
  Average Change: 16

## Cc1c(F)cccc1C(=O)Nc1ccc(C(=O)N2Cc3cccn3Cc3ccccc32)cc1 [Example 466, N-[4-(5H-pyrrolo[2,1-c][1,4]benzodiazepin-10(11H)-ylcarbonyl)phenyl]-3-fluoro-2-methylbenzamide]
Rat Hepatic V1 Receptors
  IC50: 26 nM
[1]
  IC50: 4 nM
Vasopressin V2; 10 mg/kg orally
  Osmolality: 522 mOsm/kg
  Urine Volume: 14.1 ml/4 hrs
Vasopressin V1; 30 mg/kg i.v.
  Max. % Inhibition: 94%
  Time (of max. % inhibition): 94 min

## Cc1cccc(C(=O)Nc2ccc(C(=O)N3Cc4cccn4Cc4ccccc43)cc2)c1C [Example 467, N-[4-(5H-pyrrolo[2,1-c][1,4]benzodiazepin-10(11H)-ylcarbonyl)phenyl]-2,3-dimethylbenzamide]
Rat Hepatic V1 Receptors
  IC50: 31 nM
[1]
  IC50: 5 nM
Vasopressin V2; 10 mg/kg orally
  Osmolality: 365 mOsm/kg
  Urine Volume: 18 ml/4 hrs
Vasopressin V1; 10 mg/kg i.v.
  Max. % Inhibition: 65%
  Time (of max. % inhibition): 120 min

## Cc1ccccc1NC(=O)c1ccc(C(=O)N2Cc3cccn3Cc3ccccc32)cc1 [Example 484, N-(2-Methylphenyl)-4-(5H-pyrrolo[2,1-c][1,4]-benzodiazepin-10(11H)-ylcarbonyl)benzamide]
Rat Hepatic V1 Receptors
  IC50: 97 nM
[1]
  IC50: 25 nM
Vasopressin V2; 10 mg/kg orally
  Osmolality: 785 mOsm/kg
  Urine Volume: 8 ml/4 hrs
Vasopressin V1; 10 mg/kg i.v.
  Max. % Inhibition: 79%
  Time (of max. % inhibition): 300 min
Vasopressin V1; 30 mg/kg p.o.
  Max. % Inhibition: 22%
  Time (of max. % inhibition): 180 min
